The values below are quoted from earlier work in US20050208119A1, “Encapsulated oral chelating preparations” (priority 2004, published 2005).

For this series the following is noted: oral administration.

Take `O=C(O)CN(CCN(CC(=O)O)CC(=O)O)CC(=O)O` [EDTA, ethylene-diaminetetraacetic acid]: the “fraction absorbed when administered by mouth” value (general consensus) was “about five”. For the same compound, under “reported”, the “unabsorbed fraction that remains within the digestive tract” value is on record as 95%.
